Measured values published in PubChem BioAssay (NCI).
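48-hour exposure; five concentrations; linearly interpolated endpoints. GI50 = concentration required for 50% inhibition of growth. TGI: total growth inhibition.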

Key:
Assay in all cases: growth of human tumour cells (NCI), 48 h
UACC-62 melanoma = system: UACC-62 melanoma
CAKI-1 renal = system: CAKI-1 renal
K-562 leukemia = system: K-562 leukemia
SW-620 colon = system: SW-620 colon
UACC-257 melanoma = system: UACC-257 melanoma
OVCAR-8 ovarian = system: OVCAR-8 ovarian
MALME-3M melanoma = system: MALME-3M melanoma
RPMI-8226 leukemia = system: RPMI-8226 leukemia
SK-MEL-5 melanoma = system: SK-MEL-5 melanoma
LOX IMVI melanoma = system: LOX IMVI melanoma
A498 renal = system: A498 renal
HCT-116 colon = system: HCT-116 colon
HCT-15 colon = system: HCT-15 colon
TK-10 renal = system: TK-10 renal
MDA-MB-435 = system: MDA-MB-435
HT29 colon = system: HT29 colon
NCI-H226 lung = system: NCI-H226 lung
HOP-62 NSCLC = system: HOP-62 NSCLC
NCI-H23 lung = system: NCI-H23 lung
OVCAR-3 ovarian = system: OVCAR-3 ovarian
SR leukemia = system: SR leukemia
ACHN renal = system: ACHN renal
UO-31 renal = system: UO-31 renal
SK-MEL-2 melanoma = system: SK-MEL-2 melanoma
OVCAR-4 ovarian = system: OVCAR-4 ovarian
HCC-2998 colon = system: HCC-2998 colon
MCF7 breast = system: MCF7 breast
NCI/ADR-RES ovarian = system: NCI/ADR-RES ovarian
OVCAR-5 ovarian = system: OVCAR-5 ovarian
A549 NSCLC = system: A549 NSCLC
T-47D breast = system: T-47D breast
BT-549 breast = system: BT-549 breast
SNB-19 CNS = system: SNB-19 CNS
SN12C renal = system: SN12C renal
CCRF-CEM leukemia = system: CCRF-CEM leukemia
U251 CNS = system: U251 CNS
MOLT-4 leukemia = system: MOLT-4 leukemia
SK-OV-3 ovarian = system: SK-OV-3 ovarian
SF-539 CNS = system: SF-539 CNS
MDA-MB-231 breast = system: MDA-MB-231 breast
NCI-H522 lung = system: NCI-H522 lung
KM12 colon = system: KM12 colon
DU-145 prostate = system: DU-145 prostate
SF-295 CNS = system: SF-295 CNS
M14 melanoma = system: M14 melanoma
HOP-92 NSCLC = system: HOP-92 NSCLC
IGROV1 ovarian = system: IGROV1 ovarian
HS 578T breast = system: HS 578T breast
NCI-H460 lung = system: NCI-H460 lung
786-0 renal = system: 786-0 renal
RXF 393 renal = system: RXF 393 renal
PC-3 prostate = system: PC-3 prostate
HL-60(TB) leukemia = system: HL-60(TB) leukemia
COLO 205 colon = system: COLO 205 colon
SNB-75 CNS = system: SNB-75 CNS
SK-MEL-28 melanoma = system: SK-MEL-28 melanoma
SF-268 CNS = system: SF-268 CNS
EKVX NSCLC = system: EKVX NSCLC
MDA-N = system: MDA-N

`Cc1ccc(-c2c(C#N)[n+](=O)c3cc(Cl)c(Cl)cc3n2[O-])cc1` gave a GI50 (UACC-62 melanoma) greater than 47 µM, a TGI (UACC-62 melanoma) greater than 69.4 µM and a GI50 (CAKI-1 renal) of 16.9 µM. The TGI (CAKI-1 renal) was 32.2 µM, the GI50 (K-562 leukemia) was 2560 nM and the GI50 (SW-620 colon) was 5.08 µM. The TGI (SW-620 colon) was 11.8 µM, the GI50 (UACC-257 melanoma) was 4.89 µM and the TGI (UACC-257 melanoma) was 9.77 µM. The GI50 (OVCAR-8 ovarian) was 7.39 µM, the TGI (OVCAR-8 ovarian) was 23.1 µM and the GI50 (MALME-3M melanoma) was 7 µM. It also gave a TGI (MALME-3M melanoma) of 25.2 µM, a GI50 (RPMI-8226 leukemia) of 4.76 µM and a TGI (RPMI-8226 leukemia) of 16.7 µM. It also gave a GI50 (SK-MEL-5 melanoma) of 13.9 µM, a TGI (SK-MEL-5 melanoma) of 27.2 µM and a GI50 (LOX IMVI melanoma) of 27.1 µM. For the same compound, the TGI (LOX IMVI melanoma) was greater than 100000 nM, the GI50 (A498 renal) was 16.3 µM and the TGI (A498 renal) was 30.4 µM. For the same compound, the GI50 (HCT-116 colon) was 2160 nM, the GI50 (HCT-15 colon) was 29.9 µM and the TGI (HCT-15 colon) was greater than 100 µM. It also gave a GI50 (TK-10 renal) of 16.7 µM, a TGI (TK-10 renal) of 32.9 µM and a GI50 (MDA-MB-435) of 17.2 µM. The TGI (MDA-MB-435) was 35.2 µM, the GI50 (HT29 colon) was 2940 nM and the TGI (HT29 colon) was 11 µM. The GI50 (NCI-H226 lung) was 40.4 µM, the TGI (NCI-H226 lung) was greater than 100000 nM and the GI50 (HOP-62 NSCLC) was 10.3 µM. It also gave a TGI (HOP-62 NSCLC) of 26.7 µM, a GI50 (NCI-H23 lung) of 5.46 µM and a TGI (NCI-H23 lung) of 13.1 µM. The GI50 (OVCAR-3 ovarian) was 8.29 µM, the TGI (OVCAR-3 ovarian) was 23.5 µM and the GI50 (SR leukemia) was 2130 nM. For the same compound, the TGI (SR leukemia) was greater than 100 µM, the GI50 (ACHN renal) was 5.27 µM and the GI50 (UO-31 renal) was 13.6 µM. The TGI (UO-31 renal) was 35.7 µM, the GI50 (SK-MEL-2 melanoma) was 17.3 µM and the TGI (SK-MEL-2 melanoma) was 34.7 µM. It also gave a GI50 (OVCAR-4 ovarian) of 10.8 µM, a TGI (OVCAR-4 ovarian) of 30.4 µM and a GI50 (HCC-2998 colon) of 4.76 µM. It also gave a TGI (HCC-2998 colon) of 11.6 µM, a GI50 (MCF7 breast) of 13.6 µM and a TGI (MCF7 breast) of 34.9 µM. For the same compound, the GI50 (NCI/ADR-RES ovarian) was 5.86 µM, the TGI (NCI/ADR-RES ovarian) was 17.3 µM and the GI50 (OVCAR-5 ovarian) was 6.02 µM. The TGI (OVCAR-5 ovarian) was 14.7 µM, the GI50 (A549 NSCLC) was 8.32 µM and the TGI (A549 NSCLC) was 23.3 µM. It also gave a GI50 (T-47D breast) of 5.98 µM, a TGI (T-47D breast) of 16.3 µM and a GI50 (BT-549 breast) of 16.1 µM. The TGI (BT-549 breast) was 35.5 µM, the GI50 (SNB-19 CNS) was 14.4 µM and the TGI (SNB-19 CNS) was greater than 47.1 µM. It also gave a GI50 (SN12C renal) of 30.5 µM, a TGI (SN12C renal) of 85.6 µM and a GI50 (CCRF-CEM leukemia) of 2950 nM. It also gave a TGI (CCRF-CEM leukemia) of 15.6 µM, a GI50 (U251 CNS) of 34.6 µM and a TGI (U251 CNS) greater than 100000 nM. For the same compound, the GI50 (MOLT-4 leukemia) was 1550 nM, the TGI (MOLT-4 leukemia) was 3.41 µM and the GI50 (SK-OV-3 ovarian) was 21.6 µM. For the same compound, the TGI (SK-OV-3 ovarian) was 47.1 µM, the GI50 (SF-539 CNS) was 16.1 µM and the TGI (SF-539 CNS) was 35 µM. For the same compound, the GI50 (MDA-MB-231 breast) was 3.49 µM, the GI50 (NCI-H522 lung) was 12.9 µM and the TGI (NCI-H522 lung) was greater than 67400 nM. The GI50 (KM12 colon) was 6.05 µM, the TGI (KM12 colon) was 26.6 µM and the GI50 (DU-145 prostate) was 17 µM. It also gave a TGI (DU-145 prostate) of 33.2 µM, a GI50 (SF-295 CNS) of 19.4 µM and a TGI (SF-295 CNS) of 37.9 µM. For the same compound, the GI50 (M14 melanoma) was 4.95 µM, the TGI (M14 melanoma) was 19.2 µM and the GI50 (HOP-92 NSCLC) was 6 µM. For the same compound, the TGI (HOP-92 NSCLC) was 13.7 µM, the GI50 (IGROV1 ovarian) was 3.41 µM and the TGI (IGROV1 ovarian) was greater than 36900 nM. For the same compound, the GI50 (HS 578T breast) was 10.3 µM, the TGI (HS 578T breast) was 48.9 µM and the GI50 (NCI-H460 lung) was 20 µM. It also gave a TGI (NCI-H460 lung) of 41.3 µM, a GI50 (786-0 renal) of 13.4 µM and a TGI (786-0 renal) of 30.1 µM. For the same compound, the GI50 (RXF 393 renal) was 5.53 µM, the TGI (RXF 393 renal) was 12.6 µM and the GI50 (PC-3 prostate) was 6.88 µM. For the same compound, the TGI (PC-3 prostate) was 18.5 µM, the GI50 (HL-60(TB) leukemia) was 2500 nM and the TGI (HL-60(TB) leukemia) was greater than 100000 nM. For the same compound, the GI50 (COLO 205 colon) was 8.97 µM, the TGI (COLO 205 colon) was 24.2 µM and the GI50 (SNB-75 CNS) was 18.2 µM. It also gave a TGI (SNB-75 CNS) of 38.2 µM, a GI50 (SK-MEL-28 melanoma) of 3.98 µM and a TGI (SK-MEL-28 melanoma) of 13.5 µM. For the same compound, the GI50 (SF-268 CNS) was 5.16 µM, the TGI (SF-268 CNS) was 18 µM and the GI50 (EKVX NSCLC) was 21.5 µM. For the same compound, the TGI (EKVX NSCLC) was 45.4 µM.

`C[n+]1c(-c2ccccc2)cc2/c(=C\c3ccccc3)c3ccccc3n21` was tested, and the TGI (UACC-62 melanoma) was 3.24 µM, the TGI (CAKI-1 renal) was 11.4 µM and the TGI (K-562 leukemia) was greater than 100 µM. The TGI (SW-620 colon) was 3.47 µM, the TGI (UACC-257 melanoma) was 3.98 µM and the TGI (OVCAR-8 ovarian) was 4.19 µM. It also gave a TGI (MALME-3M melanoma) of 2.93 µM, a TGI (RPMI-8226 leukemia) greater than 100 µM and a TGI (MDA-N) of 3.42 µM. It also gave a TGI (LOX IMVI melanoma) of 2880 nM, a TGI (A498 renal) of 23.1 µM and a TGI (HCT-116 colon) of 4.91 µM. The TGI (HCT-15 colon) was 11.5 µM, the TGI (TK-10 renal) was 14.2 µM and the TGI (MDA-MB-435) was 2.45 µM. The TGI (HT29 colon) was 3.22 µM, the TGI (NCI-H226 lung) was 2010 nM and the TGI (HOP-62 NSCLC) was 6.9 µM. It also gave a TGI (NCI-H23 lung) of 7.2 µM, a TGI (OVCAR-3 ovarian) of 3.04 µM and a TGI (SR leukemia) greater than 21.4 µM. It also gave a TGI (ACHN renal) of 11.8 µM, a TGI (UO-31 renal) of 7.81 µM and a TGI (SK-MEL-2 melanoma) of 2.26 µM. For the same compound, the TGI (OVCAR-4 ovarian) was 17.2 µM, the TGI (HCC-2998 colon) was 14.2 µM and the TGI (MCF7 breast) was greater than 32.2 µM. The TGI (NCI/ADR-RES ovarian) was 71.1 µM, the TGI (OVCAR-5 ovarian) was 13.4 µM and the TGI (A549 NSCLC) was greater than 36.3 µM. The TGI (SNB-19 CNS) was 24 µM, the TGI (SN12C renal) was 3.32 µM and the TGI (U251 CNS) was 1670 nM. For the same compound, the TGI (MOLT-4 leukemia) was 7.78 µM, the TGI (SK-OV-3 ovarian) was 17.4 µM and the TGI (MDA-MB-231 breast) was 3.55 µM. The TGI (NCI-H522 lung) was 2010 nM, the TGI (KM12 colon) was 2.18 µM and the TGI (DU-145 prostate) was 10.6 µM. For the same compound, the TGI (SF-295 CNS) was 76 µM, the TGI (M14 melanoma) was 4.19 µM and the TGI (HOP-92 NSCLC) was 4.93 µM. The TGI (IGROV1 ovarian) was 2640 nM, the TGI (HS 578T breast) was 0.576 µM and the TGI (786-0 renal) was 2.77 µM. The TGI (RXF 393 renal) was 4.07 µM, the TGI (PC-3 prostate) was 3.69 µM and the TGI (HL-60(TB) leukemia) was 302 nM. For the same compound, the TGI (COLO 205 colon) was 1.8 µM, the TGI (SNB-75 CNS) was 2.05 µM and the TGI (SK-MEL-28 melanoma) was 2.73 µM. It also gave a TGI (SF-268 CNS) of 2.92 µM and a TGI (EKVX NSCLC) of 9.64 µM.
